Where two headings read alike, the source gives them in different places.
Experiments:
[1] = system: acetylated α-tubulin (AcTub) levels in QBI293 cells; assay: QBI293 cell assay of MT stabilization: acetylated α-tubulin ELISA; type: cell-based
Summary of the method: (§1)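 AcTub and α-Tub were quantified by ELISA in whole-cell extracts normalized by BCA protein and expressed relative to vehicle. AcTub changes were also scaled to a 100 nM reference stabilizer control.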

[2] = system: de-tyrosinated α-tubulin (GluTub) in brain of WT mice; assay: Brain PD: Glu-tubulin in brain tissue after compound treatment; type: in vivo, mouse; conditions: WT CD-1 mice, 1 mg/kg i.p. once daily for two consecutive days
Protocol: Finally, to evaluate target engagement in the CNS, PD studies were conducted to determine compound-dependent elevations in the stable MT marker, de-tyrosinated α-tubulin (GluTub), in brain homogenates from compound-treated WT mice.
All animal protocols were approved by the University of Pennsylvania Institutional Animal Care and Use Committee (IACUC). […] Compounds were diluted from 20 or 40 mM DMSO stock solutions into 30% Kolliphor EL (Sigma-Aldrich) phosphate-buffered saline, pH 7.4. After 4 h following the second injection, mice were euthanized and cortices and hippocampi were isolated from each brain and placed in 0.2 mL of ice-cold radioimmunoprecipitation assay (RIPA) buffer (50 mM Tris, 150 mM NaCl, 5 mM EDTA, 0.5% sodium deoxycholate, 1% NP-40, 0.1% sodium dodecyl sulfate (SDS), pH 8.0) containing protease inhibitor (PI) cocktail (Sigma-Aldrich), 1 mM phenylmethylsulfonyl fluoride (PMSF) (Sigma-Aldrich), and 3 μM trichostatin A (TSA) (Sigma-Aldrich). The brain samples were homogenized with a handheld battery-operated mixer and subsequently sonicated. After centrifugation at 100,000g for 30 min at 4 °C, supernatant samples were transferred to a new tube and the pellets were resuspended in 0.15 mL of RIPA buffer and again homogenized, sonicated, and centrifuged. The supernatant from the second centrifugation was pooled with that from the first. The combined supernatant samples were assessed for protein concentration using a BCA assay (Thermo Fisher Scientific), and equal protein amounts from each brain sample underwent separation by 10% sodium dodecyl sulfate polyacrylamide gel electrophoresis (SDS-PAGE) followed by transfer onto nitrocellulose membranes essentially as previously described.[11] […] Incubation with infrared dye-conjugated secondary antibodies and subsequent imaging and quantification of the blots on the Odyssey imaging system were as described.[11]

[3] = system: total α-tubulin (α-Tub) levels in QBI293 cells; assay: QBI293 cell assay: total α-tubulin ELISA; type: cell-based
Summary of the method: as §1

[4] = Brain-to-plasma ratio in mice; type: in vivo; conditions: mouse, ip, 1 h post-administration, i.p. 1.5 mg/kg, read-out: brain-to-plasma ratio (B/P)

## C[C@@H](Nc1c(-c2c(F)cc(C#CCCO)cc2F)c(Cl)nc2ncnn12)C(C)(C)C [Compound 53, (R)-4-(4-(5-Chloro-7-((3,3-dimethylbutan-2-yl)amino)-[1,2,4]triazolo[1,5-a]pyrimidin-6-yl)-3,5-difluorophenyl)but-3-yn-1-ol]
[1]; 1 uM compound, normalized
  AcTub (1 uM - normalized): 0.57
[1]; 10 uM compound, normalized
  AcTub (10 uM - normalized): 0.81
[1]; 4 h, 1 uM compound, read-out: AcTub (1uM)
  fold induction at 1 µM: 3.67
[1]; 4 h, 10 uM compound, read-out: AcTub (10 uM)
  fold induction at 10 µM: 5.25
[1]; 4 h incubation, 1 μM
  AcTub 1 μM, fold-change compared to positive control compound 5 (100 nM) (in parentheses): 0.57 fold-change
[1]; 4 h incubation, 1 μM, read-out: AcTub 1 μM, fold-change compared to vehicle (DMSO)-treated cells
  fold induction at 1 µM: 3.67 ± 0.34
[1]; 4 h incubation, 10 μM
  AcTub 10 μM, fold-change compared to positive control compound 5 (100 nM) (in parentheses): 0.81 fold-change
[1]; 4 h incubation, 10 μM, read-out: AcTub 10 μM, fold-change compared to vehicle (DMSO)-treated cells
  fold induction at 10 µM: 5.25 ± 0.89
[2]
  brain GluTub (GluTub-to-total α-Tub ratio) relative to vehicle-treated mice: significant elevations in brain GluTub
[3]; 4 h, 1 uM compound, read-out: AlfaTub (1uM)
  fold induction at 1 µM: 0.98
[3]; 4 h, 10 uM compound, read-out: AlfaTub (10 uM)
  fold induction at 10 µM: 0.98
[3]; 4 h incubation, 1 μM, read-out: α-Tub 1 μM, fold-change compared to vehicle (DMSO)-treated cells
  fold induction at 1 µM: 0.98 ± 0.04
[3]; 4 h incubation, 10 μM, read-out: α-Tub 10 μM, fold-change compared to vehicle (DMSO)-treated cells
  fold induction at 10 µM: 0.98 ± 0.21
[4]
  Kp at 1 h: ~0.5
